Data: paper PMC7890096, “Binding of non-canonical peptidoglycan controls Vibrio cholerae broad spectrum racemase activity” (Computational and Structural Biotechnology Journal, 2021)

Tested on: BsrV
Assay: in vitro BsrV racemase assay (L-Ala substrate) with muropeptides, Marfey's/HPLC
Type: biochemical, Vibrio cholerae
Settings: 4 mM L-Ala, 5 min at 37 °C, Bicarbonate buffer 50 mM pH 9, Fig. 3A; for inhibition of BsrV D-Ala production, in words: D-cycloserine 0.1 mM, tripeptide and D-Ala-D-Ala at equal concentration (amino acid, tripeptide/dipeptide), p dipeptide vs tripeptide = 0.0181, tripeptide vs M4 = 0.0027, M3R vs D-cycloserine < 0.0001
Experimental: For activity assays, in vitro LAA and DAAS were characterized with Marfey’s (FDAA)-derivatization in HPLC and DAAO assay (D-amino acid oxidase) performed as described. The product from a racemization reaction was derivatized with L-FDAA (1-fluoro-2-4-dinitrophenyl-5-L-alanine amide, Marfey’s reagent, Thermo Scientific). First, an equal volume of NaHCO3 0.5 M was added to the racemization reaction; then, 6 µL of this reaction was reacted with FDAA (10 mg/mL in acetone) at 80 °C for 3 min. The reaction was stopped with HCl 2 N and the samples were filtered. The products were separated with a linear gradient of triethylamine phosphate/acetonitrile in HPLC with an Aeris peptide column (250 × 4.6 mm; 3.6 μm particle size) (Phenomenex, USA) and detected at Abs.340 nm. To determine the inhibition effect of the sacculus in BsrV's activity, 35 µg of sacculi were incubated for 5 min at 37 °C with BsrV and 4 mM of L-Ala in Tris-HCl 50 mM pH 8. […] DAAO reaction was determined by coupling 10 µL of the extract into 150 µL of a reaction containing: sodium phosphate buffer 100 mM pH 7, Trigonopsis variabilis D-amino acid oxidase (DAAO) (Komarova et al., 2012) 3.6 U/ml, horseradish peroxidase 1 U/mL, o-phenylenediamine (OPD) 2 mg/mL and FAD 3 mg/ml. This two-step assay permits the quantification of H2O2 (DAAO is able to produce α-ketoacid, NH3 and H2O2 from DAA). Peroxidase reduces H2O2, […], leading to the production of 2,3–25 diaminophenazine. The reaction was incubated for 2 h at 37 °C and inactivated with HCl 3 M, giving a colorimetric product that can be measured at 492 nm. To determine the inhibition effect of muropeptides in BsrV's activity, 0.1 mM of M4 (GlcNAc-MurNAc-Ala-Glu-DAP (Diaminopimelate)-Ala), M3M (GlcNAc-MurNAc-Ala-Glu-DAP-Met), M3R (GlcNAc-MurNAc-Ala-Glu-DAP-Arg) and D-cycloserine were incubated with BsrV and 4 mM of L-Ala for 5 min at 37 °C (1/40 relation) in Bicarbonate buffer 50 mM pH 9. In the case of tripeptide and D-Ala-D-Ala, equal concentration (amino acid, tripeptide/dipeptide) was utilized.
Fig. 3 Peptidoglycan inhibits BsrV’s activity. (A) Inhibitory effect of muropeptides on BsrV activity. In vitro BsrV racemase assays with L-Ala as substrate in the presence of (see schematics): M4 (disaccharide tetrapeptide), M3M and M3R; the asterisk represents D-Met and D-Arg substitutions in the fourth position. […] P values: [dipeptide vs tripeptide] = 0.0181; [tripeptidevsM4] = 0.0027; [M4vsM3M] = 0.0003; [M4vsM3R] < 0.0003; [M3MvsM3R] = 0.2552; [M3RvsD-cycloserine] < 0.0001. (B) Inhibitory effect of peptidoglycan sacculi on BsrV activity. In vitro BsrV racemase assays with L-Ala as substrate in the presence of undigested sacculi (see schematics). Sugar rings are represented by hexagons and peptides are depicted. […]

| Molecule | inhibition of BsrV D-Ala production, in words | reduction in D-Ala production (% of inhibition) (0.1 mM muropeptide, Marfey's derivatization, HPLC 340 nm, vs control reaction with no inhibitor, single time point, p M4 vs M3M = 0.0003, M4 vs M3R < 0.0003, M3M vs M3R = 0.2552) |
| --- | --- | --- |
| N[C@@H]1CON=C1O [D-cycloserine] | inhibit the least | – |
| CC(=O)N[C@H]1[C@H](O[C@H]2[C@H](O[C@H](C)C(=O)N[C@@H](C)C(=O)N[C@H](CCC(=O)N[C@@H](CCC[C@@H](N)C(=O)O)C(=O)N[C@H](C)C(=O)O)C(=O)O)[C@@H](NC(C)=O)C(O)O[C@@H]2CO)O[C@H](CO)[C@@H](O)[C@@H]1O (stereo partly drawn) [M4, GlcNAc-MurNAc-Ala-Glu-DAP-Ala] | – | ~ 20% |
| L-Ala-D-Glu-D-Lys [tripeptide] | inhibit the least | – |
| D-Ala-D-Ala [dipeptide] | inhibit the least | – |
